Reference: US9700052B2, “Methods and compositions comprising steroid honey bee feeding inhibitors” (Iowa State University Research Foundation, Inc., priority 2015, dated 2017)

Test system: honey bees, Apis mellifera
Assay: Artificial styrofoam flower foraging assay with 20% sucrose nectar tube
Type: in vivo
Settings: for Consumed, ml (nectar) / # feeding: n = 4
Method: To determine how the phytoecdysteroid inhibits bee foraging, we utilized artificial flowers so that the compounds can be added to a nectar source or sprayed on the surface of the artificial flower. The artificial flowers were made from green florist styrofoam blocks (12 cm^2) and petals made from blue and green tape. In the center of the styrofoam block a 2 ml test tube was inserted that contained a 20% sucrose solution in water as a substitute for nectar. The same array of holders was used as in the previous study (FIG. 2).
To determine if the repellent activity occurs in a concentration dependent manner we utilized the artificial flowers treated with various concentrations of the steroids in the nectar tube. In addition to observing the number of honey bees feeding from the nectar tube we measured the amount of nectar consumed after the observation period of about 45 min. The purified phytoecdysteroid was effective at 2.5 and 0.4 mg/ml in reducing the number of honey bees feeding on the nectar compared to lower concentrations. […] The pure 20-OH-ecdysone was also inhibitory at 1 mg/ml and 0.2 mg/ml with more foraging at the lower concentration. Cucurbitacin B was inhibitory at 0.5 mg/ml but not at 0.1 mg/ml.

[1] = 0.01 mg/ml in 2 ml nectar tube, about 45 min
[2] = 0.01 mg/ml in nectar tube, about 45 min
[3] = 0.1 mg/ml in 2 ml nectar tube, about 45 min
[4] = 0.1 mg/ml in nectar tube, about 45 min

Q: What does the source list for `CC(C)(O)CC[C@@H](O)[C@](C)(O)[C@H]1CC[C@@]2(O)C3=CC(=O)[C@@H]4C[C@@H](O)[C@@H](O)C[C@]4(C)[C@H]3CC[C@]12C` [20-hydroxyecdysone]?
A: Consumed, ml (nectar) [1]: 1.1 mL; # feeding [2]: 37; Consumed, ml (nectar) [3]: 1.7 mL; # feeding [4]: 56; Consumed, ml (nectar) (0.2 mg/ml in 2 ml nectar tube, about 45 min): 0.25 mL; inhibition of honey bees feeding on the nectar (0.2 mg/ml in nectar tube): inhibitory; # feeding (0.2 mg/ml in nectar tube, about 45 min): 17; Consumed, ml (nectar) (1 mg/ml in 2 ml nectar tube, about 45 min): 0.05 mL; inhibition of honey bees feeding on the nectar (1 mg/ml in nectar tube): inhibitory; # feeding (1 mg/ml in nectar tube, about 45 min): 2

Q: How did the “Consumed, ml (nectar)” value [1] turn out when `CC(=O)OC(C)(C)/C=C/C(=O)[C@](C)(O)[C@H]1C(O)C[C@@]2(C)[C@@H]3CC=C4[C@H](CC(O)C(=O)C4(C)C)[C@@]3(C)C(=O)C[C@]12C` (stereo partly drawn) [Cucurbitacin B] was run?
A: 1.9 mL

Q: And the “# feeding” value [2]?
A: 4

Q: And the “Consumed, ml (nectar)” value [3]?
A: 1.2 mL

Q: And the “inhibition of honey bees feeding on the nectar” value (“inhibition of honey bees feeding” for short) (0.1 mg/ml in nectar tube)?
A: not

Q: And the “# feeding” value [4]?
A: 3

Q: And the “Consumed, ml (nectar)” value (0.5 mg/ml in 2 ml nectar tube, about 45 min)?
A: 0.3 mL

Q: What about the “inhibition of honey bees feeding” value (0.5 mg/ml in nectar tube) of the same molecule?
A: inhibitory

Q: What about the “# feeding” value (0.5 mg/ml in nectar tube, about 45 min) of the same molecule?
A: 8

Q: Which “inhibition of honey bees feeding” value (0.01 mg/ml in nectar tube) does the source give for `C[C@H]([C@H](O)CCC(C)(C)O)[C@H]1CC[C@@]2(O)C3=CC(=O)[C@@H]4C[C@@H](O)[C@@H](O)C[C@]4(C)[C@H]3CC[C@]12C` [Pure ecdsyone, ecdysone] here?
A: not

Q: And the “inhibition of honey bees feeding” value (0.1 mg/ml in nectar tube)?
A: inhibitory

Q: And the “inhibition of honey bees feeding” value (1 mg/ml in nectar tube)?
A: inhibitory

Q: What about the “Consumed, ml (nectar)” value (Table 5, 0.01 mg/ml in 2 ml nectar tube) of the same molecule?
A: 0.8 mL

Q: And the “# feeding” value (Table 5, 0.01 mg/ml in nectar tube)?
A: 24

Q: And the “Consumed, ml (nectar)” value (Table 5, 0.1 mg/ml in 2 ml nectar tube)?
A: 0.3 mL

Q: What about the “# feeding” value (Table 5, 0.1 mg/ml in nectar tube) of the same molecule?
A: 0

Q: And the “Consumed, ml (nectar)” value (Table 5, 1 mg/ml in 2 ml nectar tube)?
A: 0.2 mL

Q: What about the “# feeding” value (Table 5, 1 mg/ml in nectar tube) of the same molecule?
A: 0
